Molecular target: KRAS^G12C (Homo sapiens, UniProt P01116, C118A/G12C)
Assay: Coupled Nucleotide Exchange Assay
Type: biochemical
Conditions: GDP-bound KRAS (aa 1-169) G12C/C118A; 2 h compound pre-incubation; SOS-mediated exchange, 30 min; cRAF binding (AlphaLISA)
Description: The KRAS^G12C coupled nucleotide exchange assay allows for the screening and profiling of KRAS^G12C antagonists/inhibitors by monitoring the binding of an effector protein (e.g., a Ras binding domain of Raf1, RBD-cRaf) to KRAS^G12C. Purified GDP-bound KRAS protein (aa 1-169), containing both G12C and C118A amino acid substitutions and an N-terminal His-tag, was pre-incubated in assay buffer (25 mM HEPES pH 7.4, 10 mM MgCl2, 0.01% Triton X-100, either with or without 0.1% BSA) with serially diluted compound for 2 h. For all subsequent steps, BSA was omitted and DTT was added to the reaction buffer at a final concentration of 1 mM. Following compound pre-incubation, purified SOS protein (aa 564-1049) and GTP (Roche 10106399001) were added to the assay wells and incubated for an additional 30 min. To determine the extent of inhibition of SOS-mediated nucleotide exchange, purified GST-tagged cRAF (aa 1-149), nickel chelate AlphaLISA acceptor beads (PerkinElmer AL108R), and AlphaScreen glutathione donor beads (PerkinElmer 6765302) were added to the assay wells and incubated for 5-30 min. The assay plates were then read on a plate reader measuring luminescence signal. Signal intensity of compound-containing wells were normalized to DMSO control, and data were analyzed using a 4-parameter logistic model to calculate IC50 values.

KRAS^G12C, sequence (P01116 1-169 isoform P01116-2 G12C/C118A): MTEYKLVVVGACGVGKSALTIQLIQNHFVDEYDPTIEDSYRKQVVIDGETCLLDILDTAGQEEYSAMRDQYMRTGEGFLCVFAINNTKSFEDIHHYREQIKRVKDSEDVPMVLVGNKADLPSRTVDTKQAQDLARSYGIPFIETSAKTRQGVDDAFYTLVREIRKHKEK

| IC50 | Compound |
| --- | --- |
| 3.58 µM | C=CC(=O)N1CCN(C2CN(c3cc(N4CCC5(CCCCO5)CC4)nc(C(F)(F)F)c3C#N)C2)CC1 [Compound 3-035, 4-(3-(4-acryloylpiperazin-1-yl)azetidin-1-yl)-6-(1-oxa-9-azaspiro[5.5]undecan-9-yl)-2-(trifluoromethyl)nicotinonitrile] |
| 5.7 µM | C=CC(=O)N1CCN(C2CN(c3cc(N4CCC5(CC4)CC5)nc(C(F)(F)F)c3C#N)C2)CC1 [Compound 3-038, 4-(3-(4-acryloylpiperazin-1-yl)azetidin-1-yl)-6-(6-azaspiro[2.5]octan-6-yl)-2-(trifluoromethyl)nicotinonitrile] |
| 5.12 µM | C=CC(=O)N1CCN(C2CN(c3cc(N4CCC5(CC4)OCC4CC45)nc(C(F)(F)F)c3C#N)C2)CC1 (centres unmarked) [Compound 3-042, 4-(3-(4-acryloylpiperazin-1-yl)azetidin-1-yl)-6-(3-oxaspiro[bicyclo[3.1.0]hexane-2,4′-piperidin]-1′-yl)-2-(trifluoromethyl)nicotinonitrile] |
| 2.29 µM | C=CC(=O)N1CCN(C2CN(c3cc(N4CCC5(CC4)CCN(C4COC4)C5)nc(C(F)(F)F)c3C#N)C2)CC1 [Compound 3-048, 4-(3-(4-acryloylpiperazin-1-yl)azetidin-1-yl)-6-(2-(oxetan-3-yl)-2,8-diazaspiro[4.5]decan-8-yl)-2-(trifluoromethyl)nicotinonitrile] |

The remaining lines, values behind:

| Compound | IC50 |
| --- | --- |
| C=CC(=O)N1CCN(C2CN(c3cc(N4CCC5(CC4)CC5(F)F)nc(C(F)(F)F)c3C#N)C2)CC1 [Compound 3-036, 4-(3-(4-acryloylpiperazin-1-yl)azetidin-1-yl)-6-(1,1-difluoro-6-azaspiro[2.5]octan-6-yl)-2-(trifluoromethyl)nicotinonitrile] | 6.7 µM |
| C=CC(=O)N1CCN(C2CN(c3cc(N4CCC5(CC4)CC(F)(F)C5)nc(C(F)(F)F)c3C#N)C2)CC1 [Compound 3-037, 4-(3-(4-acryloylpiperazin-1-yl)azetidin-1-yl)-6-(2,2-difluoro-7-azaspiro[3.5]nonan-7-yl)-2-(trifluoromethyl)nicotinonitrile] | 3.3 µM |
| C=CC(=O)N1CCN(C2CN(c3cc(N4CCC5(CC4)OC(C)(C)c4ccccc45)nc(C(F)(F)F)c3C#N)C2)CC1 [Compound 3-040, 4-(3-(4-acryloylpiperazin-1-yl)azetidin-1-yl)-6-(3,3-dimethyl-3H-spiro[isobenzofuran-1,4′-piperidin]-1′-yl)-2-(trifluoromethyl)nicotinonitrile] | 2.84 µM |
| C=CC(=O)N1CCN(C2CN(c3cc(N4CCC5(CC4)OCc4cc(Cl)ccc45)nc(C(F)(F)F)c3C#N)C2)CC1 [Compound 3-041, 4-(3-(4-acryloylpiperazin-1-yl)azetidin-1-yl)-6-(5-chloro-3H-spiro[isobenzofuran-1,4′-piperidin]-1′-yl)-2-(trifluoromethyl)nicotinonitrile] | > 6.25 µM |
| C=CC(=O)N1CCN(C2CN(c3cc(N4CCC5(CC4)CC(F)(F)CO5)nc(C(F)(F)F)c3C#N)C2)CC1 [Compound 3-044, 4-(3-(4-acryloylpiperazin-1-yl)azetidin-1-yl)-6-(3,3-difluoro-1-oxa-8-azaspiro[4.5]decan-8-yl)-2-(trifluoromethyl)nicotinonitrile] | 3.32 µM |
| C=CC(=O)N1CCN(C2CN(c3cc(N4CCC5(CC4)CC(C)(C)CO5)nc(C(F)(F)F)c3C#N)C2)CC1 [Compound 3-045, 4-(3-(4-acryloylpiperazin-1-yl)azetidin-1-yl)-6-(3,3-dimethyl-1-oxa-8-azaspiro[4.5]decan-8-yl)-2-(trifluoromethyl)nicotinonitrile] | 6.35 µM |
| C=CC(=O)N1CCN(C2CN(c3cc(N4CCC5(CC4)OCc4cnn(C)c45)nc(C(F)(F)F)n3)C2)CC1 [Compound 3-047, 1-(4-(1-(6-(1-methyl-1,4-dihydrospiro[furo[3,4-c]pyrazole-6,4′-piperidin]-1′-yl)-2-(trifluoromethyl)pyrimidin-4-yl)azetidin-3-yl)piperazin-1-yl)prop-2-en-1-one] | 2.69 µM |
